Tests used:
Assay in all cases: KINOMEscan competition binding
Conditions in all cases: compound 10.0 µM
[1] = target: ACVRL1 (human) (UniProt P37023)
[2] = target: CDC42BPB (human) (UniProt Q9Y5S2)
[3] = target: CDK2 (human) (UniProt P24941)
[4] = target: CLK4 (human) (UniProt Q9HAZ1)
[5] = target: CSK (human) (UniProt P41240)
[6] = target: CSNK1E (human) (UniProt P49674)
[7] = target: DDR1 (human) (UniProt Q08345)
[8] = target: DYRK1B (human) (UniProt Q9Y463)
[9] = tested on: EGFR (human), P00533 [T790M/L858R]
[10] = target: EPHB3 (human) (UniProt P54753)
[11] = target: ERN1 (human) (UniProt O75460)
[12] = target: FER (human) (UniProt P16591)
[13] = tested on: FLT3 (human), P36888 [R834Q]
[14] = target: GRK7 (human) (UniProt Q8WTQ7)
[15] = target: IKBKB (human) (UniProt O14920)
[16] = target: IKBKE (human) (UniProt Q14164)
[17] = tested on: KIT (human), P10721 [V559D]
[18] = target: LATS2 (human) (UniProt Q9NRM7)
[19] = target: MAP3K12 (human) (UniProt Q12852)
[20] = target: MAPK4 (human) (UniProt P31152)
[21] = target: MKNK1 (human) (UniProt Q9BUB5)
[22] = target: MKNK2 (human) (UniProt Q9HBH9)
[23] = target: MYO3B (human) (UniProt Q8WXR4)
[24] = target: NTRK1 (human) (UniProt P04629)
[25] = target: PAK6 (human) (UniProt Q9NQU5)
[26] = target: PIP5K1A (human) (UniProt Q99755)
[27] = target: PKN2 (human) (UniProt Q16513)
[28] = target: PRKG2 (human) (UniProt Q13237)
[29] = target: ROCK2 (human) (UniProt O75116)
[30] = target: RPS6KA1 KD2 (human) (UniProt Q15418)
[31] = target: RPS6KA5 KD1 (human) (UniProt O75582)
[32] = target: RPS6KA5 KD2 (human) (UniProt O75582)
[33] = target: SBK1 (human) (UniProt Q52WX2)
[34] = target: SGK110 (human) (UniProt P0C264)
[35] = target: SNRK (human) (UniProt Q9NRH2)
[36] = target: SRMS (human) (UniProt Q9H3Y6)
[37] = target: STK11 (human) (UniProt Q15831)
[38] = target: STK39 (human) (UniProt Q9UEW8)
[39] = target: TAOK2 (human) (UniProt Q9UL54)
[40] = target: TLK1 (human) (UniProt Q9UKI8)
[41] = target: TNNI3K (human) (UniProt Q59H18)

Chain of RPS6KA1 KD2 (human) (Q15418 whole entry, looked up): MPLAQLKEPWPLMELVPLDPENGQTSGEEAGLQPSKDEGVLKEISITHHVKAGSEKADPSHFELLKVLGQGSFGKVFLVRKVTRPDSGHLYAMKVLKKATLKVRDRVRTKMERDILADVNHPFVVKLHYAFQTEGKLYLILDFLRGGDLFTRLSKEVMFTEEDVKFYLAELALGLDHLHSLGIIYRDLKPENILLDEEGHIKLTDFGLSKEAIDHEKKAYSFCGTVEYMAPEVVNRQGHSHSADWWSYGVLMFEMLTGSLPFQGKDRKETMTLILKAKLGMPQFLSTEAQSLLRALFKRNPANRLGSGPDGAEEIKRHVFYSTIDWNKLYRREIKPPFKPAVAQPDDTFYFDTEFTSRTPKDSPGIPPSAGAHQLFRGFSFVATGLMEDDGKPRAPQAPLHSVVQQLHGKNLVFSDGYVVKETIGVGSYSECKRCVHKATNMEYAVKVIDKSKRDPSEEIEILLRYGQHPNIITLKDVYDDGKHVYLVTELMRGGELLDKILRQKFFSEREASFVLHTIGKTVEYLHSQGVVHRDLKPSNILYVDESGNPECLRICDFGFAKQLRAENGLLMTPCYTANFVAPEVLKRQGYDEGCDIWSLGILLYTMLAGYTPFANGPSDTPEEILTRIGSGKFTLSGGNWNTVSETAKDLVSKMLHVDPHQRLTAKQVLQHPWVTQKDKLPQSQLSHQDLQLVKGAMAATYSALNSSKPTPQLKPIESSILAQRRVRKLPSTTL
Chain of MAP3K12 (human) (Q12852 whole entry, looked up): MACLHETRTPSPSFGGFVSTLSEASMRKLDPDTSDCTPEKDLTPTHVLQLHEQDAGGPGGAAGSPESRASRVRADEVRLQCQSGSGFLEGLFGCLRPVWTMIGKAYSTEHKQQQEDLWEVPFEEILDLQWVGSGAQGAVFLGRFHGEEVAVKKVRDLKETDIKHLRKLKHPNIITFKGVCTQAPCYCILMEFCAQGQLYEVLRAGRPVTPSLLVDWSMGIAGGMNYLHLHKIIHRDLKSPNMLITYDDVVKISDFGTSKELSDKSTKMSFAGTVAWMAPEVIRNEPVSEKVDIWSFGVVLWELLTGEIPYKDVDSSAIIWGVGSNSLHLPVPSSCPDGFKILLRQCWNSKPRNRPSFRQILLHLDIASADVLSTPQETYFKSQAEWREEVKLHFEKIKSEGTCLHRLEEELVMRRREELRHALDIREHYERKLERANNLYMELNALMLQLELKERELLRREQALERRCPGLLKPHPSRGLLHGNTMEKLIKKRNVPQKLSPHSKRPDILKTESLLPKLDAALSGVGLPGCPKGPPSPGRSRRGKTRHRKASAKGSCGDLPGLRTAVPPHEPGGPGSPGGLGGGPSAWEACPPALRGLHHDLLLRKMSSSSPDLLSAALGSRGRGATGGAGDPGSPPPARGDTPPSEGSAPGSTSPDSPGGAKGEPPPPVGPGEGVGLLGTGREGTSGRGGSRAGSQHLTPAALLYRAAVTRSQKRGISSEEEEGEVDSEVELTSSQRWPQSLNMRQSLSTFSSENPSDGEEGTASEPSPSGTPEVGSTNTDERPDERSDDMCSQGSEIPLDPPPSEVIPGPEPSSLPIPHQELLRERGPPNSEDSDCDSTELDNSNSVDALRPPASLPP
Chain of LATS2 (human) (Q9NRM7 whole entry, looked up): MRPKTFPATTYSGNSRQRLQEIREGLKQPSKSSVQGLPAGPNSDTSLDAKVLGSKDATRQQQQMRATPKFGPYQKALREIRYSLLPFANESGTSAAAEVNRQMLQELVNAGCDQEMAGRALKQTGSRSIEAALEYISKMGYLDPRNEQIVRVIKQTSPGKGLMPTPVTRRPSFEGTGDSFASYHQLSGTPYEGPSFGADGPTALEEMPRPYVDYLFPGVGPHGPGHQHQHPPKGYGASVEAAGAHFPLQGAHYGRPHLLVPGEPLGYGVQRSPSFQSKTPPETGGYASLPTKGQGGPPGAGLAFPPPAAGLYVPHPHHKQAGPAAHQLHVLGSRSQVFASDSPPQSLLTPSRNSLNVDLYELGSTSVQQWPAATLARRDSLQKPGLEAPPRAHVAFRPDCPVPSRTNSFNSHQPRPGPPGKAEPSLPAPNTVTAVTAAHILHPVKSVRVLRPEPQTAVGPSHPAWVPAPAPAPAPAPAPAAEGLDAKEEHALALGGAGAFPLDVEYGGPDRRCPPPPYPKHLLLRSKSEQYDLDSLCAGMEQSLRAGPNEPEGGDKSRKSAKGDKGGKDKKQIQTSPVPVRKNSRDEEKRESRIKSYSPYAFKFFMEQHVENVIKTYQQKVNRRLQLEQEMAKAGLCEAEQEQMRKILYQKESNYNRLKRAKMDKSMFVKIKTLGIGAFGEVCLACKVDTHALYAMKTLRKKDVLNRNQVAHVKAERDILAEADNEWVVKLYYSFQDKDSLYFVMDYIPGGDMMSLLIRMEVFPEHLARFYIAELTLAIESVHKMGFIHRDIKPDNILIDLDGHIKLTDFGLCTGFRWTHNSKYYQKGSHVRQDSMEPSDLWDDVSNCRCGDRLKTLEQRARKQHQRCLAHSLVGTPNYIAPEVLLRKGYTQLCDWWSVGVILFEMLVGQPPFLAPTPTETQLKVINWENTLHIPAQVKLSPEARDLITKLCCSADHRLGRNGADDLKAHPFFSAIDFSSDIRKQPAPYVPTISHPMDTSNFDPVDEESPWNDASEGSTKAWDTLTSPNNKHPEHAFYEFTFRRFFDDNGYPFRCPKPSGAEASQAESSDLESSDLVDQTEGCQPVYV
Chain of GRK7 (human) (Q8WTQ7 whole entry, looked up): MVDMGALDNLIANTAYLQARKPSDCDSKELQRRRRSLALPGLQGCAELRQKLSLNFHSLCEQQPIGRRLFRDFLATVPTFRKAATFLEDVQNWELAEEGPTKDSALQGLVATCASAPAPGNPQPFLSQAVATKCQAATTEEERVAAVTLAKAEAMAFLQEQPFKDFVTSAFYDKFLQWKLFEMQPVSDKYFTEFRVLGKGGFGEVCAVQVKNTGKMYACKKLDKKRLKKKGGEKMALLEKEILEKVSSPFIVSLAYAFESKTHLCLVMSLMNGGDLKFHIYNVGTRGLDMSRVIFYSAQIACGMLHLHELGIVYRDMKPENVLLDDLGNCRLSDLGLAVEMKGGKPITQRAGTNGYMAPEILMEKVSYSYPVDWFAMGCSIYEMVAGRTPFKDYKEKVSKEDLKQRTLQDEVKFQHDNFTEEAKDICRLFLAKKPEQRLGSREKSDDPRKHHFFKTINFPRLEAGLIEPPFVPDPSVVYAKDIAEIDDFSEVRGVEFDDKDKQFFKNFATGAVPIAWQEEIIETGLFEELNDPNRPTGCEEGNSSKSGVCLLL
Chain of NTRK1 (human) (P04629 whole entry, looked up): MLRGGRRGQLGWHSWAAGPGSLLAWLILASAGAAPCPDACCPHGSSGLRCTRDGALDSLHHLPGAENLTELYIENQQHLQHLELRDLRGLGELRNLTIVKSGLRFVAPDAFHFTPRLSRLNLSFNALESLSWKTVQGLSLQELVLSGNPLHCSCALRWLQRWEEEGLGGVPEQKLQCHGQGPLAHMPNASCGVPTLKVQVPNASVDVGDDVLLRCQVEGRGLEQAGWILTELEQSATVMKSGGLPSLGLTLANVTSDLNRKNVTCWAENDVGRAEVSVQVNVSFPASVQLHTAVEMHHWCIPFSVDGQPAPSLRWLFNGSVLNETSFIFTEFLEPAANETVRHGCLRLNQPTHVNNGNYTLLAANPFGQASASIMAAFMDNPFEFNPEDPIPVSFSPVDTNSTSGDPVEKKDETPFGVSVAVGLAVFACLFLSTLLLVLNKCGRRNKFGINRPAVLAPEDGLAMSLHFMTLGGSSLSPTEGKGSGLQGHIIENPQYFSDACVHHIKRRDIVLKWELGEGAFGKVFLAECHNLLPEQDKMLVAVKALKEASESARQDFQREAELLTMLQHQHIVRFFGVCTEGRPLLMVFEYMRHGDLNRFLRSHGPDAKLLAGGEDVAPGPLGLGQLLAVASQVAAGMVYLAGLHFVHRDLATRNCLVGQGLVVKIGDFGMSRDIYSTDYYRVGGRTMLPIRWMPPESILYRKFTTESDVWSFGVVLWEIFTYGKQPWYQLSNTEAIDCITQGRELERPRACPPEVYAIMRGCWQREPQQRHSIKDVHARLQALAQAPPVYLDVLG
Chain of DYRK1B (human) (Q9Y463 whole entry, looked up): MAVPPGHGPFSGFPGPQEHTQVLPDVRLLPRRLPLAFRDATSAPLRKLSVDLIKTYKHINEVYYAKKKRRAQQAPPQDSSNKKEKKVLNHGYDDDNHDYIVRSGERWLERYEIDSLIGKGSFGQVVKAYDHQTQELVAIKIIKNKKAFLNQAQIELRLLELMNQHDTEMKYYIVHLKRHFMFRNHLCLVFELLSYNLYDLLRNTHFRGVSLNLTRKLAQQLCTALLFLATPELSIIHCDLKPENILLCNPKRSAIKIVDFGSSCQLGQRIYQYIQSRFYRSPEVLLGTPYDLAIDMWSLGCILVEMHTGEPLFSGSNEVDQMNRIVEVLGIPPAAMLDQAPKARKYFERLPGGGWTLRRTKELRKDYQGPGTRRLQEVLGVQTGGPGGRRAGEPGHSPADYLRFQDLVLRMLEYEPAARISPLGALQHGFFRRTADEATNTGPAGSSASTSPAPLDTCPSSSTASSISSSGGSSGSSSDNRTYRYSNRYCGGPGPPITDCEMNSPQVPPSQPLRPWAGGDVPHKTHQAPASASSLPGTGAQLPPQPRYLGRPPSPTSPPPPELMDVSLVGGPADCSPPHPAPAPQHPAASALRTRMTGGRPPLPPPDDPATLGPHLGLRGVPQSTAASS
Chain of CSNK1E (human) (P49674 whole entry, looked up): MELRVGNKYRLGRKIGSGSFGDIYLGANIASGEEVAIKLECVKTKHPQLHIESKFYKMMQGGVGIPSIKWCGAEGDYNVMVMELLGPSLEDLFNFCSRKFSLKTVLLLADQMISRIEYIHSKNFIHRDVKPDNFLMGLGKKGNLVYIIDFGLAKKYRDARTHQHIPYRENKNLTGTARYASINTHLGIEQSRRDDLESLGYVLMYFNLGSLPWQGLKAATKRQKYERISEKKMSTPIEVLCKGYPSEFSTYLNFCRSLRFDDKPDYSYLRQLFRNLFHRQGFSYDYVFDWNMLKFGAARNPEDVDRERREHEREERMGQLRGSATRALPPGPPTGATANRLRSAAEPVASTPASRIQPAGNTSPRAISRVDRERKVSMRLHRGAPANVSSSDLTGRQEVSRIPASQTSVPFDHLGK

**Q.** How did the kinase still bound, per cent of control [1] turn out when COc1ccc(-c2ccc3c(N4CCOCC4)nc(N4C[C@@H](C)O[C@@H](C)C4)nc3n2)cc1CO was run?
**A.** 100%

**Q.** And the kinase still bound, per cent of control [2]?
**A.** 81%

**Q.** What about the per cent of control [3] of the same molecule?
**A.** 77%

**Q.** What about the kinase still bound, per cent of control [4] of the same molecule?
**A.** 62%

**Q.** And the kinase still bound, per cent of control [5]?
**A.** 77%

**Q.** What about the kinase still bound, per cent of control [6] of the same molecule?
**A.** 87%

**Q.** What about the kinase still bound, per cent of control [7] of the same molecule?
**A.** 85%

**Q.** What about the kinase still bound, per cent of control [8] of the same molecule?
**A.** 85%

**Q.** And the kinase still bound, per cent of control [9]?
**A.** 100%

**Q.** And the kinase still bound, per cent of control [10]?
**A.** 98%

**Q.** What about the kinase still bound, per cent of control [11] of the same molecule?
**A.** 89%

**Q.** What about the kinase still bound, per cent of control [12] of the same molecule?
**A.** 100%

**Q.** And the kinase still bound, per cent of control [13]?
**A.** 100%

**Q.** What about the kinase still bound, per cent of control [14] of the same molecule?
**A.** 100%

**Q.** What about the kinase still bound, per cent of control [15] of the same molecule?
**A.** 100%

**Q.** And the kinase still bound, per cent of control [16]?
**A.** 100%

**Q.** And the kinase still bound, per cent of control [17]?
**A.** 90%

**Q.** What about the kinase still bound, per cent of control [18] of the same molecule?
**A.** 89%

**Q.** What about the per cent of control [19] of the same molecule?
**A.** 100%

**Q.** What about the kinase still bound, per cent of control [20] of the same molecule?
**A.** 100%

**Q.** And the kinase still bound, per cent of control [21]?
**A.** 36%

**Q.** And the kinase still bound, per cent of control [22]?
**A.** 75%

**Q.** What about the kinase still bound, per cent of control [23] of the same molecule?
**A.** 100%

**Q.** And the kinase still bound, per cent of control [24]?
**A.** 72%

**Q.** And the kinase still bound, per cent of control [25]?
**A.** 90%

**Q.** What about the kinase still bound, per cent of control [26] of the same molecule?
**A.** 97%

**Q.** What about the kinase still bound, per cent of control [27] of the same molecule?
**A.** 100%

**Q.** What about the kinase still bound, per cent of control [28] of the same molecule?
**A.** 100%

**Q.** And the kinase still bound, per cent of control [29]?
**A.** 21%

**Q.** What about the kinase still bound, per cent of control [30] of the same molecule?
**A.** 100%

**Q.** And the kinase still bound, per cent of control [31]?
**A.** 100%

**Q.** And the kinase still bound, per cent of control [32]?
**A.** 100%

**Q.** What about the kinase still bound, per cent of control [33] of the same molecule?
**A.** 100%

**Q.** And the kinase still bound, per cent of control [34]?
**A.** 98%

**Q.** What about the kinase still bound, per cent of control [35] of the same molecule?
**A.** 48%

**Q.** What about the kinase still bound, per cent of control [36] of the same molecule?
**A.** 98%

**Q.** And the kinase still bound, per cent of control [37]?
**A.** 95%

**Q.** What about the per cent of control [38] of the same molecule?
**A.** 100%

**Q.** And the kinase still bound, per cent of control [39]?
**A.** 76%

**Q.** What about the kinase still bound, per cent of control [40] of the same molecule?
**A.** 94%

**Q.** What about the kinase still bound, per cent of control [41] of the same molecule?
**A.** 100%

Reference: the kinase profiling compilation of Christmann-Franck et al. (2016)
